From ChEMBL document CHEMBL1145666, “Geriatrics photo quiz. Thoracic aortic aneurysm” (1983)
In brackets after ≈: the same amount, converted by molar mass.

Experiments:
Type in all cases: functional
P388 [1] = assay: In vivo antitumor activity against mouse P388 cells at 40 ug/kg relative to control
P388 [2] = assay: In vivo antitumor activity against mouse P388 cells at 20 ug/kg relative to control
P388 [3] = assay: Antitumor activity against mouse P388 cells; conditions: read-out: ED50 (the source's name)

SMILES: C=C(C)[C@]12C[C@@H](C)[C@@]34OC5(CCCCCCC[C@H](C)[C@H]6[C@H](C)[C@H](OC(=O)c7ccccc7)[C@@](O)([C@H](O)[C@@]7(CO)O[C@H]7[C@H]3[C@H]1O5)[C@@H]64)O2 [PIMELEA FACTOR P2]
- T/C (P388 [1]): 130
- T/C (P388 [2]): 132
- EC50 (P388 [3]): 0.79 ng/mL (≈ 1.24 nM)

SMILES: C=C(C)[C@]12C[C@@H](C)[C@@]34O[C@](CCCCCCCCC)(O[C@@H]1[C@@H]3[C@@H]1O[C@]1(CO)[C@@H](O)[C@]1(O)C(=O)C(C)=C[C@H]14)O2 [SIMPLEXIN]
- EC50 (P388 [3]): 5 ng/mL (≈ 9.39 nM)
